For 13 compounds, IC50 results are on record in patent US20070197590A1, “SUBSTITUTED DIPIPERIDINE CCR2 ANTAGONISTS” (priority 2006, published 2007).

Experiment [1] has as its target T1, CCR2 (Homo sapiens, UniProt P41597).
T1 construct: host or cells: THP-1 cells
T1 sequence (P41597 1-360 isoform P41597-2): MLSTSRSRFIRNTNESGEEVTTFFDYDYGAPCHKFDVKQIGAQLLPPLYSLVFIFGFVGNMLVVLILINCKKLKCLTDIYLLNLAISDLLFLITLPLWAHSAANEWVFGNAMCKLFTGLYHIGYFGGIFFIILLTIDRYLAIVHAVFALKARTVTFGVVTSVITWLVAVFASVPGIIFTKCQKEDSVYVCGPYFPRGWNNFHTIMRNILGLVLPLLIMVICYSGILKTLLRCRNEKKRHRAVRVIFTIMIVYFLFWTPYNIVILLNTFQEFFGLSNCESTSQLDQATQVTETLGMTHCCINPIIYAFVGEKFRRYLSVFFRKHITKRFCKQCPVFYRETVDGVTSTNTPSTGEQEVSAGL
As to the kind of experiment: MCP-1 Receptor Binding Assay in THP-1 Cells. To be noted: THP-1 cells, 0.5 nM 125I labeled MCP-1, 2 hours at 30° C.; read-out: Inhibition of MCP-1 Binding IC50. In outline: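 Whole THP-1 cells incubated 2 h at 30° C with 0.5 nM 125I-MCP-1 and varying compound concentrations; bound radioactivity harvested on filters and counted by scintillation. Nonspecific binding with 1 μM cold MCP-1; IC50 for inhibition of binding versus vehicle.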

The test system of experiment [2] is MCP-1 induced calcium ion influx in THP-1 cells. As to the kind of experiment: MCP-1 Induced Calcium Mobilization in THP-1 Cells. The class given is cell-based. To be noted: Homo sapiens, THP-1, THP-1 cells, 0.2 μM MCP-1, FLIPR; read-out: Inhibition of MCP-1 Induced Calcium Ion Influx IC50. In outline:
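Fluo-3-loaded (5 μM, 45 min) THP-1 cells preincubated 15 min with compound. Calcium change after 0.2 μM MCP-1 addition read by FLIPR relative to vehicle; IC50 values derived.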
A general note: Calcium assays in cells follow changes in intracellular calcium, usually with a dye or a luminescent sensor.

Experiment [3] relates to MCP-1 induced chemotaxis of THP-1 cells. As to the kind of experiment: MCP-1 Induced Chemotaxis in THP-1 Cells. The class given is cell-based. To be noted: Homo sapiens, MCP-1 0.01 μg/mL, 3 hours at 37° C., read-out: Inhibition of MCP-1 Induced Chemotaxis IC50. How it is done: MCP-1 induced chemotaxis was run in a 24-well chemotaxis chamber. MCP-1 (0.01 μg/mL) was added to the lower chamber and 100 μL of THP-1 cells (1×10^7 cell/mL) was added to the top chamber. Varying concentrations of test compound were added to the top and bottom chambers. Cells were allowed to chemotax for 3 hours at 37° C. and 5% CO2. An aliquot of the cells that had migrated to the bottom chamber was taken and counted then compared to vehicle.
Table 3 lists IC50 values for inhibition of MCP-1 induced chemotaxis.

The structures appear in SMILES notation.

Take `N=C(NC(=O)c1cc(F)cc(F)c1)N1CCC(C(O)CN2CCC(c3c[nH]c4ccccc34)CC2)CC1` (stereo not drawn) [Compound 10, 3,5-difluoro-N-[(4-{1-hydroxy-2-[4-(1H-indol-3-yl)-piperidin-1-yl]-ethyl}-piperidin-1-yl)-imino-methyl]-benzamide]: the results for the half-inhibitory concentration (IC50) in experiment [1], in experiment [2] and in experiment [3] were 150 nM, 400 nM and 270 nM, respectively.
Turning to `Cc1cccc(/C=C/C(=O)N2CCC(C(O)CN3CCC(c4c[nH]c5ccccc45)CC3)CC2)c1` (stereo not drawn) [Compound 11], the results for the 50% inhibitory concentration (IC50) in experiment [1], in experiment [2] and in experiment [3] were 10 nM, 350 nM and 190 nM, respectively.
The matching figures for `COc1ccc(C2CCN(CC(O)C3CCN(C(=O)/C=C/c4cc(F)cc(F)c4)CC3)CC2)cc1` (stereo not drawn) [Compound 12]: 20 nM, 650 nM and 7 nM.
For the compound `COc1ccc(C2CCN(CC(O)C3CCN(C(=O)/C=C/c4cc(F)c(F)c(F)c4)CC3)CC2)cc1` (stereo not drawn) [Compound 13], the IC50 in experiment [1] was determined as 10 nM; in experiment [2], 240 nM; in experiment [3], 60 nM.
For `COc1ccc(C2CCN(CC(O)C3CCN(C(=O)/C=C/c4ccc(Cl)c(Cl)c4)CC3)CC2)cc1` (stereo not drawn) [Compound 14], in that order: 140 nM, 3 nM and 150 nM.
The matching figures for `COc1ccc(C2CCN(CC(O)C3CCN(C(=O)Nc4ccc(Cl)c(Cl)c4)CC3)CC2)cc1` (stereo not drawn) [Compound 15, 4-{1-hydroxy-2-[4-(4-methoxy-phenyl)-piperidin-1-yl]-ethyl}-piperidine-1-carboxylic acid (3,4-dichloro-phenyl)-amide]: 30 nM, 110 nM and 20 nM.
`COc1ccc(C2CCN(CC(O)C3CCN(C(=S)Nc4cccc(Br)c4)CC3)CC2)cc1` (stereo not drawn) [Compound 16, 4-{1-hydroxy-2-[4-(4-methoxy-phenyl)-piperidin-1-yl]-ethyl}-piperidine-1-carbothioic acid (3-bromo-phenyl)-amide]: the IC50 in experiment [1] is 130 nM; in experiment [2] it was 980 nM; in experiment [3] it was 300 nM.
Turning to `CS(=O)(=O)Nc1ccc2[nH]cc(C3CCN(CC(=O)C4CCN(C(=O)C=Cc5cc(F)c(F)c(F)c5)CC4)CC3)c2c1` [Compound 18, N-{3-[1-(2-oxo-2-{1-[3-(3,4,5-trifluoro-phenyl)-acryloyl]-piperidin-4-yl}-ethyl)-piperidin-4-yl]-1H-indol-5-yl}-methanesulfonamide], the results for the IC50 in experiment [1], in experiment [2] and in experiment [3] were 680 nM, 1700 nM and 420 nM, respectively.
In the case of `Cc1cccc(/C=C/C(=O)N2CCC(C(O)CN3CCC(c4c[nH]c5ncccc45)CC3)CC2)c1` (stereo not drawn) [Compound 19], the IC50 in experiment [1] came out at 130 nM; in experiment [2], 30 nM; in experiment [3] it was 190 nM.
Consider `O=C(/C=C/c1cc(F)cc(F)c1)N1CCC(C(O)CN2CCC(c3c[nH]c4ncccc34)CC2)CC1` (stereo not drawn) [Compound 20], for which the half-maximal inhibitory concentration (IC50) in experiment [1] was 50 nM; in experiment [2] it was 230 nM; in experiment [3] it was 20 nM.
With `O=C(/C=C/c1cc(F)c(F)c(F)c1)N1CCC(C(O)CN2CCC(c3c[nH]c4ncccc34)CC2)CC1` (stereo not drawn) [Compound 21], the IC50 in experiment [1] is 50 nM; in experiment [2], 480 nM; in experiment [3], 20 nM.
As to `O=C(/C=C/c1cccc(C(F)(F)F)c1)N1CCC(C(O)CN2CCC(c3c[nH]c4ncccc34)CC2)CC1` (stereo not drawn) [Compound 22], the values for the IC50 in experiment [1], in experiment [2] and in experiment [3] were 190 nM, 30 nM and 360 nM, respectively.
With `O=C(/C=C/c1ccc(Cl)c(Cl)c1)N1CCC(C(O)CN2CCC(c3c[nH]c4ncccc34)CC2)CC1` (stereo not drawn) [Compound 23], the half-maximal inhibitory concentration (IC50) worked out at 20 nM in experiment [1], 7 nM in experiment [2] and 20 nM in experiment [3].

For orientation: IC50 means the concentration at which inhibition is half-maximal.
